Data reported in patent publication US9290765B2, “Protection against endothelial barrier dysfunction through inhibition of the tyrosine kinase abl-related gene (ARG)” (VERENIGING VOOR CHRISTELIJK HOGER ONDERWIJS, …, priority 2011, dated 2016).

How the values were obtained:
[1] = tested on: HUVECs; experiment: Electrical Cell-substrate Impedance Sensing (ECIS) of HUVEC monolayers, thrombin stimulation; format: cell-based, human
Experimental: (§1) For ECIS measurements, cells were trypsinized and seeded in 1:1 density on gelatine-coated ECIS arrays, each containing 8 wells with 10 gold electrodes/well (8 W10E, Applied Biophysics, Troy, N.Y., USA). Culture medium was refreshed 24 h after seeding, while experiments were performed 48 h after seeding. For pretreatment, designated pharmacological inhibitors or vector were dissolved in M199 supplemented with 1% HSA. After 90 min of pretreatment, thrombin was added directly to the cells for a final concentration of 1 U/mL. During stimulation impedance was measured at multiple frequencies to allow for calculation of resistance attributable to cell-cell adhesion (Rb) and resistance attributable to cell-matrix interaction (alpha). The absolute resistance was measured, while the relative resistance was calculated by normalization to the time point just before addition of the thrombin, to correct for baseline differences.

[2] = tested on: HUVECs; experiment: HRP passage across thrombin-stimulated HUVEC monolayers on porous filters; format: cell-based, human; settings: for effect on thrombin-induced HRP passage: HUVECs
Experimental: (§2) Endothelial barrier function was evaluated with horse radish peroxidase (HRP) passage and Electrical Cell-substrate Impedance Sensing (ECIS). For measurement of HRP passage, confluent cells were seeded in 1:1 density on 0.33 cm^2 Costar polycarbonate filters, pore-size 3.0 μm (Corning, Lowell, Mass., USA) and grown to confluence in 4 or 5 days, with change of culture medium every other day. For pretreatment, pharmacological inhibitors or vector were dissolved in M199 supplemented with 1% human serum albumin (HSA, Sanquin CLB), and after removal of culture medium, solutions were added to the upper compartment of the filters during 60 min. For stimulation, pretreatment medium was changed for 1% HSA/M199 containing designated inhibitors, HRP 5 μg/mL (Sigma Aldrich) and thrombin 1 U/mL. 1% HSA/M199 was added to the lower compartment. At indicated time points samples were taken from the lower compartment; HRP concentration in samples was detected by measuring chemoluminiscence after addition of TMB/E (Upstate/Millipore).

[3] = tested on: human pulmonary microvascular endothelial cells (HPMVECs); experiment: HRP passage over HPMVEC monolayers, thrombin stimulation; format: cell-based; settings: imatinib 10 μM, thrombin 1 U/mL
Experimental: as §2

[4] = tested on: human pulmonary microvascular endothelial cells (HPMVECs); experiment: ECIS of HPMVEC monolayers, thrombin stimulation; format: cell-based; settings: imatinib 10 μM, thrombin 1 U/mL
Experimental: as §1

[5] = tested on: human foreskin microvascular endothelial cells (HFMVECs); experiment: ECIS of HFMVEC monolayers, thrombin stimulation; format: cell-based; settings: imatinib 10 μM, thrombin 1 U/mL
Experimental: as §1

[6] = tested on: HUVECs; experiment: Immunofluorescence staining of VE-cadherin, β-catenin and F-actin in thrombin-stimulated HUVECs; format: cell-based, human
Experimental: Cells were seeded on glass coverslips coated with gelatine 1% and pretreated with glutaraldehyde 0.5% (Fluka, St. Gallen, Switzerland). Cells were seeded in 1:1 density and grown to confluence in 48-72 hours. For pretreatment, culture medium was changed to 1% HSA/M199, containing pharmacological inhibitors or vector. After 60 min of pretreatment, thrombin was added directly to the wells for a final concentration of 1 U/mL. At indicated time points, medium was removed and warm paraformaldehyde 2% (Sigma Aldrich) was added to the cells, while kept on ice for 15 min. Cells were permeabilized with Triton X-100 0.05% (Sigma Aldrich) in phosphate-buffered saline (PBS), and incubated overnight with primary antibodies for β-catenin (1:100), VE-cadherin (1:400) or Arg (1:150) in 0.1% HSA/PBS. Subsequently, cells were washed and incubated with FITC-labeled secondary antibodies (Invitrogen, Paisly, United Kingdom) and rhodamine/phalloidin (Invitrogen) for 1 h at room temperature. Cells were washed and sealed in Vectashield mounting medium containing DAPI (Vector Laboratories Inc., Burlingham, Calif., USA) for nuclear staining. Immunofluorescent imaging was performed with an Axiovert 200 Marianas™ inverted wide-field fluorescence microscope, using a 40× Zeiss air lens (NA 0.75) and a 63× Zeiss oil lens (NA 1.4). […]

[7] = tested on: RhoA; experiment: G-LISA RhoA Activity Assay in HUVEC lysates; format: cell-based, human; settings: HUVECs; imatinib 10 μM; thrombin 1 U/mL
Experimental: After stimulation, cells were washed with ice-cold PBS and lysed with lysis buffer containing […] Tris/HCl pH 8.0, 0.15M NaCl, 0.09M KCl, 2 mM EDTA/NaOH pH 8.0, 5% Igepal, and 0.5% Triton X-100, further supplemented with PhosStop […] inhibitor (Roche Diagnostics, Mannheim, Germany), and Complete EDTA-free […] inhibitor (Roche Diagnostics). After centrifugation of the cell lysates, the supernatant was snap-frozen and stored at −80° C. Relative RhoA activity was determined with a G-LISA RhoA Activity Assay (Cytoskeleton Inc, Denver, Colo., USA), according to the manufacturers protocol.

[8] = HUVECs transfected with Arg siRNA, imatinib 10 μM, thrombin 1 U/mL
[9] = HUVECs, imatinib 10 μM, thrombin 1 U/mL

Row | SMILES | basal endothelial barrier function / basal endothelial resistance (ECIS) ([1]; HUVECs, no thrombin) | effect on thrombin-induced decrease in endothelial resistance (thrombin response, words) ([1]; HUVECs, thrombin 1 U/mL) | effect on thrombin-induced HRP passage ([2]; thrombin 1 U/mL) | HRP passage in Arg deficient cells, imatinib vs DMSO pretreatment [2, 8] | inhibition at 10 µM ([2]; Homo sapiens, HUVEC, read-out: inhibition of thrombin-induced HRP passage) [%] | decrease in normalized resistance in Arg deficient cells, imatinib pretreatment [1, 8] | thrombin response in c-Abl deficient cells ([1]; HUVECs transfected with c-Abl siRNA, imatinib 10 μM, thrombin 1 U/mL) | maximal drop in electrical resistance ([1]; HUVECs, imatinib 10 μM, Y-27632 10 μM, thrombin 1 U/mL, FIGS. 2C and D) | maximal decrease in normalized Rb (cell-cell interaction) [1, 9] | thrombin-induced drop in cell-matrix interaction (alpha) [1, 9] | maximal decrease in normalized resistance ([1]; HUVECs, thrombin 1 U/mL, FIGS. 1B and 1C) | effect on thrombin-induced decrease in endothelial resistance (thrombin response, words) ([1]; HUVECs, thrombin 1 U/mL, listed as Imatinib) | thrombin-induced macromolecule passage [3] | maximal drop in endothelial resistance [4] | effects on Rb and alpha ([4]; compared with HUVECs) | thrombin-induced maximal drop in endothelial resistance [5] | thrombin-induced loss of VE-cadherin and β-catenin from the membrane ([6]; imatinib 10 μM, thrombin 30 min) | F-actin organization after thrombin ([6]; imatinib pretreated, thrombin 15 min) | thrombin-induced RhoA activity [7]
1 | COc1cc2ncc(-c3ccccc3)nc2cc1OC [AG1296] | improved | did not inhibit | – | – | – | – | – | – | – | – | – | – | – | – | – | – | – | – | –
2 | C[C@@H](N)[C@H]1CC[C@H](C(=O)Nc2ccncc2)CC1 [Y-27632] | – | reduced | reduced | – | – | – | – | – | – | – | – | – | – | – | – | – | – | – | –
3 | Cc1ccc(NC(=O)c2ccc(CN3CCN(C)CC3)cc2)cc1Nc1nccc(-c2cccnc2)n1 [imatinib, 4-[(4-methyl-1-piperazinyl)methyl]-N-[4-methyl-3-[[(4-(3-pyridinyl)-2-pyrimidinyl]amino]-phenyl]benzamidemethane sulfonate] | – | reduced | reduced | significantly lower | 35 to 44 | no additive effect | still attenuated | −0.44±0.02 | −0.87±0.03 | attenuation | −0.41±0.03 | attenuated | reduced | attenuated | Comparable effects | attenuated | partly reversed | not organized in F-actin stress fibers | not affected
